The values that follow come from PubChem BioAssay (NCI).

SMILES strings stand for the structures. Values joined by “and” are separate entries in the source; they are usually repeats but may differ in a detail not shown here. Equal values may be shown once.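 Tested at 5 concentrations; 48 h exposure; 96-well plates; endpoints linearly interpolated, else capped at highest concentration. GI50 is the concentration that inhibits growth by half. At the TGI there is no net growth.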 A value given as a limit tells only on which side of the number the result lay.

Among the test systems are DLD-1 colon; DMS 114 small cell lung; DMS 273 small cell lung; LXFL 529 NSCLC; P388/ADR leukemia; SN12K1 renal; SNB-78 CNS; HOP-18 NSCLC; RXF-631 renal; HS 578T breast; MDA-N.
What all share (test): NCI tumour cell line growth inhibition, 48 h

For the molecule `CCOC(=O)c1ccc(N[C@@H]2c3cc4c(cc3C(c3cc(OC)c(O)c(OC)c3)[C@H]3C(=O)OCC32)OCO4)cc1` (stereo not given in full), the GI50 with DLD-1 colon was 0.877 µM; in the assay with DMS 114 small cell lung, 0.326 µM; in the assay on DMS 273 small cell lung, 0.134 µM and 0.156 µM. Moreover, the TGI in the assay with DLD-1 colon came out at 8.02 µM; in the assay with DMS 114 small cell lung it was 3.65 µM; in the assay on DMS 273 small cell lung, 3.85 µM; in the assay with LXFL 529 NSCLC, 34.7 µM; in the assay with P388/ADR leukemia it was 0.0959 µM; with SN12K1 renal, 1.44 µM. In the assay with SNB-78 CNS, this molecule returned a TGI of 66.2 µM.

Regarding `CC1Nc2ccccc2NC1C=C(C#N)C#N` (stereo not given), the TGI in the assay with DLD-1 colon was 30.2 µM; in the assay with DMS 114 small cell lung, 40.7 µM; in the assay with DMS 273 small cell lung, 25.1 µM; in the assay on HOP-18 NSCLC it was 40.1 µM; in the assay on LXFL 529 NSCLC it was 25.7 µM; in the assay with RXF-631 renal, 24.4 µM. In the assay with SNB-78 CNS, this molecule returned a TGI of 36.4 µM.

Take `Nc1ncnc2c1ncn2C1(CO)OC(CO)C(O)C1O` (stereo not given): the TGI in the assay with DLD-1 colon, in the assay on DMS 114 small cell lung, with DMS 273 small cell lung, in the assay with HOP-18 NSCLC, in the assay with LXFL 529 NSCLC and in the assay on RXF-631 renal was more than 100 µM in each case. This molecule also came in with a TGI in the assay on SNB-78 CNS of more than 100 µM.

`O=C1/C(=C/c2ccccc2)CN(C(=O)/C=C/c2ccccc2)C/C1=C\c1ccccc1`: the TGI is 11.3 µM in the assay on DLD-1 colon; more than 43.8 µM in the assay with DMS 114 small cell lung; more than 100 µM in the assay with DMS 273 small cell lung; 97.6 µM with HOP-18 NSCLC; more than 100 µM in the assay with HS 578T breast; 29.1 µM in the assay with LXFL 529 NSCLC. For the same molecule, the TGI is 3.43 µM with MDA-N, more than 100 µM in the assay on RXF-631 renal and more than 73 µM in the assay with SNB-78 CNS.

For the molecule `O=C1C=C(c2ccccc2)NC1(c1ccccc1)c1cc(-c2ccccc2)[nH]c1-c1ccccc1` (stereo not given), the TGI in the assay on DLD-1 colon, in the assay with DMS 114 small cell lung, in the assay with DMS 273 small cell lung, with HOP-18 NSCLC, in the assay on LXFL 529 NSCLC and in the assay on RXF-631 renal was more than 100 µM each time. Also, the TGI with SNB-78 CNS was more than 100 µM.
